± gives the expanded uncertainty stated by the source.
Settings: 298.15 K; 101.33 kPa; Liquid

mass density [kg/m3] | SMILES
1382.4 ± 1.6 | OCC(F)(F)F [2,2,2-trifluoroethanol]
774 ± 1 | C1CCCCC1 [cyclohexane]
785.2 ± 1 | CCO [ethanol]
781.4 ± 1.1 | CC(C)O [propan-2-ol]

Reference: the NIST ThermoML archive (doi:10.1021/je700741x)
